# Experimental data reported in patent publication US20190099259A1, “Method for Treatment and Prevention of Biofilm Formation During Breast Augmentation Procedures” (Integrated Healing Technologies, LLC, priority 2017, published 2019).
# Columns and labels:
# [1] = tested on: R. pickettii biofilm; test: biofilm assay on silicone breast implants; assay type: cell-based, Ralstonia Pickettii
# Method: Biofilm assays were performed after 2 to 3 mL of 10^5 CFU/mL bacterial inoculum was added to each tube containing the respective implants and placed into a shaking incubator (250-300 rpm) at 30° C. for 24 hours, allowing for formation of biofilm on implants. After 24 hours' incubation, the implants having the biofilm were rinsed twice with Butterfields phosphate buffer. After the rinses, the implants were aseptically transferred to tubes containing 5 mL test articles for contact time points; 5 min and 2 hours. Postincubation, the implants were rinsed twice with Butterfields phosphate buffer, placed in 5 mL of sterile neutralizing buffer and sonicated at 50 to 60 Hz for 5 minutes. Tenfold serial dilutions were performed for each sample tube using neutralizing buffer as the diluent. A total of 100 μL of appropriate dilutions of each sample were plated on a nutrient agar plate in duplicates and incubated overnight. The colonies were counted postincubation. Data were evaluated by comparing the difference in CFU/mL for the implants and blank control at 5 min and 2 hours.
# [2] = tested on: microbial cells and spore; conditions: cited from earlier work
SMILES,"antibiofilm activity ([1]; Biocell implant, 5 minutes)","antibiofilm activity ([1]; Biocell implant, 2 hours)","antibiofilm activity ([1]; Siltex implant, 5 minutes)","antibiofilm activity ([1]; Siltex implant, 2 hours)",penetration of established biofilm ([1]; after two hours),"antibiofilm activity ([1]; smooth implant, 5 minutes)","antibiofilm activity ([1]; smooth implant, 2 hours)",effect in the biofilm model ([1]; general statement),potency as a germicide versus equivalent molar ratio of hypochlorite anion [2]
[H]/N=C(\N/C(=N/[H])NCCCCCCNC(=N)NC(=N)Nc1ccc(Cl)cc1)Nc1ccc(Cl)cc1 [Chlorhexidine gluconate],did not have antibiofilm activity,did not have antibiofilm activity,did not have antibiofilm activity,did not have antibiofilm activity,unable to penetrate established biofilm,limited reduction,complete eradication,–,–
"OCl [Hypochlorous acid, hypochlorous acid]",–,–,–,–,–,–,–,effective at reducing Ralstonia Pickettii bacterial numbers,80-100 times
